Reference: patent publication US20090156657A1, “ANTI-INFLAMMATORY COMPOSITION” (Ajinomoto Co., Inc., priority 2006, published 2009)

What was measured:
[1] = system: TNF-α, IL-1α, IL-1β and IL-6 production; conditions: human peripheral blood monocyte stimulated by LPS; cited from earlier work
[2] = system: MCP-1 mRNA; assay: MCP-1 mRNA expression in HAEC by real-time PCR; type: cell-based, human; conditions: 10 μM 24 h, 25 mM glucose 3 h, GAPDH internal standard, FIG. 3B
Description: (§1) HAEC cells pre-treated with 10 μM of CS or FS for 24 hours were stimulated with 25 mM glucose for 3 hours, and total RNA was extracted with Isogenkit (NIPPON GENE CO., LTD.). From 1 μg of RNA, cDNA was synthesized using 100 U/mL of reverse transcriptase (TAKARA BIO INC.) and 0.1 μM of oligo (dT)-adapter (TAKARA BIO INC.) (total volume of reaction mixture; 50 μL) (42° C., 40 minutes). Real-time PCR was performed using 7300 Real Time PCR system (Applied Biosystems Japan Ltd.) and the PCR product was detected by SYBER Green I.
(§2) PCR reaction composition (RT-PCRkit, TAKARA BIO INC.): 12.5 μL Premix Ex Taq, 2.5 μL SYBER Green I, synthesis primer, ROX reference dye, cDNA (corresponding to 20 ng of total RNA), final reaction volume; 25 μL
(§3) Primers having the following sequences were used.
(§4) PCR was conducted under the following conditions.
(§5) thermal denaturation: at 95° C. for 15 seconds, extension reaction: 40 cycles (3 seconds at 95° C., 31 seconds at 60° C.)
(§6) Expression amounts of VCAM-1 and MCP-1 mRNA were calculated using GAPDH as the internal standard.

[3] = system: NF-κB (p65); assay: Activation of NF-κB (nuclear translocation of p65) in HAEC stimulated with high glucose; type: cell-based, human; conditions: pre-treatment 5 and 10 μM 24 h, 25 mM glucose 2 h, FIG. 1
Description: In the present invention, the term “suppression of NF-κB activation” means suppression of the translocation of NF-κB into the nucleus. The suppression of the translocation of NF-κB into the nucleus can be confirmed by the method described in Example 1. To be specific, a test substance is added to a culture medium of human aortic endothelial cells, the cells are incubated for a predetermined time, the nucleus is extracted from the aforementioned cells stimulated with glucose, and activated NF-κB (p65) translocated into the nucleus is detected. Using the cells before glucose stimulation, wherein NF-κB is not activated, as a negative control and the cells stimulated with glucose and free of addition of a test substance as a positive control, when the detection level of the aforementioned p65 is closer to the negative control than to the positive control, NF-κB activation is evaluated to have been suppressed.
Human aortic endothelial cells (HAEC) were purchased from Clonetics Corp, and the cells cultured for 3-4 passages (37° C., under 5% carbon dioxide gas atmosphere) were used for the experiment. […] Nucleus was extracted from the cells using Nuclear Extract Kit (Active Motif), and then the activated NF-κB (p65) translocated into the nucleus was detected by TransAM NF-κB p65 Kit (Active Motif).

[4] = system: VCAM-1; assay: VCAM-1 protein expression on HAEC cell membrane (immunostaining); type: cell-based, human; conditions: 0.1-10 μM 24 h, 25 mM glucose 4 h, FIG. 4A
Description: (§7) HAEC cells proliferated to confluence in a 96 well microplate were pre-incubated with 0.1-10 μM serotonin derivative for 24 hours, and stimulated with 25 mM glucose for 4 hours. The cell layer was washed with Hanks solution, and then anti-VCAM-1 monoclonal antibody (Becton Dickinson) was added and the cells were incubated at 37° C. for 1 hour. After washing, the cells were incubated with secondary antibody (peroxidase-labeled anti-mouse IgG goat F(ab′)2 fragment; Cappel) for 1 hour. A color development substrate (o-phenylenediamine dihydrochloride) was added and, about 30 minutes later (room temperature), the absorbance (492 nm) of each well was quantified with a microplate reader. The MCP-1 concentration of the medium was quantified with Human MCP-1 Immunoassay Kit (BioSource International).

[5] = system: U-937 cells / HAEC; assay: Migration capability of monocyte (U-937), Transwell system with HAEC; type: cell-based, human; conditions: HAEC pre-incubated 5 or 10 μM 24 h, 25 mM glucose 4 h; FIG. 7
Description: The migration capability of monocyte was measured using the Transwell system (pore size 3 μm; BD Biosciences). HAEC cultured on a transwell placed in a 24 well microplate was pre-incubated with 5 or 10 μM serotonin derivative for 24 hours, and stimulated with 25 mM glucose for 4 hours. 200 μL of U-937 cell suspension (10^6 cells/mL) was added to the transwell and the cells were incubated as-is at 37° C. for 2 hours. The number of cells migrated to the lower chamber of the transwell through the membrane was counted under a microscope (20 fields). The experiment was repeated three times, and the results are shown as an average value thereof. An experiment using fluorescence-labeled U-937 cells was also performed. BCECF-AM-labeled U-937 cells were plated in the upper chamber of the transwell and incubated at 37° C. for 2 hours. The cells migrated to the lower chamber through the membrane were collected in 1 mL of PBS buffer and treated with 1% Triton X for 2 hours. The fluorescence derived from the migrated cells was quantified (Ex. 503 nm, Em. 525 nm) using a fluorescence plate reader (Bio-Rad, Fluoromark).

[6] = system: VCAM-1 mRNA; assay: VCAM-1 mRNA expression in HAEC by real-time PCR; type: cell-based, human; conditions: 10 μM 24 h, 25 mM glucose 3 h, GAPDH internal standard, FIG. 3A
Description: as §1, §2, §3, §4, §5, §6

[7] = system: MCP-1; assay: MCP-1 secretion into medium of HAEC (immunoassay); type: cell-based, human; conditions: 0.1-10 μM 24 h, 25 mM glucose 4 h, FIG. 4B
Description: as §7

[8] = system: U-937 monocyte cells / HAEC; assay: Monocyte (U-937) adhesion to HAEC cells; type: cell-based, human; conditions: HAEC pre-incubated 5 or 10 μM 24 h, 25 mM glucose 4 h; FIG. 5
Description: HAEC cells proliferated to confluence in a 24 well microplate were pre-incubated with CS and FS (5 or 10 μM each) for 24 hours and stimulated with 25 mM glucose for 4 hours. The cell layer was washed with Hanks solution, and then a suspension (1×10^6/mL, 200 μL) of U-937 monocyte cells (purchased from ATCC) was added, and the mixture was incubated at 37° C. for 30 minutes. After washing again, the cells were fixed with 1% para-formaldehyde and the number of U-937 cells attached onto HAEC was counted under a microscope (20 fields). The experiment was performed 3 times and the results are shown as an average value thereof. An experiment using fluorescence-labeled U-937 cells was also performed. To be specific, U-937 cells were incubated (37° C., 1 hour) in the presence of 10 μM 2′,7′-bis(2-carboxyethyl)-5(6)-carboxyfluorescein acetoxymethylester (BCECF-AM, Molecular Probes) and washed by centrifugation. Fluorescence-labeled U-937 cells (1×10^6/mL) were added to HAEC cells, and the mixture was incubated at 37° C. for 1 hour. The floating U-937 cells were removed, the plate was washed with PBS buffer and treated with 1% Triton X for 2 hours. The fluorescence amount of the attached cells was quantified (Ex. 503 nm, Em. 525 nm) using a fluorescence plate reader (Bio-Rad, Fluoromark).

[9] = system: IBD model mice (IL-10 deficient cell-transplanted SCID mice); conditions: Ikenoue et al. 2005; cited from earlier work

Row | SMILES | concentration inhibiting production of TNF-α, IL-1α, IL-1β and IL-6 at a transcription level [1] | expression amount of MCP-1 mRNA [2] | nuclear translocation of p65 (activation of NF-κB) [3] | VCAM-1 expression on the cell membrane [4] | number of U-937 cells migrated into subendothelium space (cell count) [5] | expression amount of VCAM-1 mRNA [6] | MCP-1 secretion into the medium [7] | number of U-937 cells attached onto HAEC (cell count) [8] | condition (chronic inflammation in the intestine) of the IBD model [9]
1 | O=C(/C=C/c1ccc(O)cc1)NCCc1c[nH]c2ccc(O)cc12 [CS, N-(p-coumaroyl)serotonin] | ≥ 50 µM | significantly suppressed the increase | significantly suppressed | suppressed the induction of their expressions in a dose-dependent manner | significantly decreased | significantly suppressed the increase | suppressed the induction of their expressions in a dose-dependent manner | decreased the number of attached cells in a serotonin derivative dose-dependent manner | –
2 | C[C@]12C=CC(=O)C=C1CC[C@@H]1[C@@H]2[C@@H](O)C[C@@]2(C)[C@H]1CC[C@]2(O)C(=O)CO [prednisolone] | – | – | – | – | – | – | – | – | can be improved
